“And” between values parts separate entries of the source, which are not always exact repeats. Equal values may be shown once. Numbers after ± are expanded uncertainties.
Columns and labels:
[1] = 101 kPa, Liquid; for speed of sound: Linear variable-path acoustic interferometer; for mass density: Pycnometric method
[2] = xn = mol fraction of the nth substance listed; conditions: 101 kPa, Liquid; for speed of sound: Linear variable-path acoustic interferometer; for mass density: Pycnometric method

Nc1ccccc1 [aniline]
[1]
Conditions | mass density [kg/m3] | speed of sound [m/s]
303.15 K | 1012.8 ± 0.4 | 1615 ± 3
313.15 K | 1004.9 ± 0.4 | 1583 ± 3
323.15 K | 998.4 ± 0.4 | 1558 ± 3

Nc1ccccc1 [aniline] + C1CCOC1
[2]
Conditions | mass density, 303.15 K [kg/m3] | mass density, 313.15 K [kg/m3] | mass density, 323.15 K [kg/m3] | speed of sound, 303.15 K [m/s] | speed of sound, 313.15 K [m/s] | speed of sound, 323.15 K [m/s]
x2 = 0 | 1012.8 ± 0.4 | 1004.9 ± 0.4 | 998.4 ± 0.4 | 1615 ± 3 | 1583 ± 3 | 1558 ± 3
x2 = 0.087 | 1004.4 ± 0.4 | 997.5 ± 0.4 | 991.5 ± 0.4 | 1592 ± 3 | 1561 ± 3 | 1537 ± 3
x2 = 0.1803 | 994.8 ± 0.3 | 988.2 ± 0.4 | 981.6 ± 0.4 | 1565 ± 3 | 1531 ± 3 | 1510 ± 3
x2 = 0.2735 | 984.8 ± 0.3 | 978.5 ± 0.4 | 971.8 ± 0.4 | 1535 ± 3 | 1500 ± 3 | 1478 ± 3
x2 = 0.3573 | 975.4 ± 0.3 | 969.4 ± 0.4 | 962.4 ± 0.4 | 1509 ± 3 | 1473 ± 3 | 1450 ± 3
x2 = 0.4556 | 964.1 ± 0.3 | 957.8 ± 0.4 | 951.6 ± 0.4 | 1476 ± 3 | 1440 ± 3 | 1417 ± 3
x2 = 0.5638 | 950.5 ± 0.3 | 943.9 ± 0.4 | 937.9 ± 0.4 | 1438 ± 3 | 1402 ± 3 | 1379 ± 3
x2 = 0.6708 | 935 ± 0.3 | 928.7 ± 0.3 | 922.6 ± 0.4 | 1393 ± 3 | 1359 ± 3 | 1334 ± 3
x2 = 0.8169 | 910.1 ± 0.3 | 904 ± 0.3 | 898.5 ± 0.4 | 1334 ± 3 | 1299 ± 2 | 1268 ± 2
x2 = 0.8812 | 898.7 ± 0.3 | 892.2 ± 0.3 | 885 ± 0.4 | 1306 ± 2 | 1267 ± 2 | 1237 ± 2

C1CCOC1 [tetrahydrofuran]
[1]
Conditions | mass density | speed of sound [m/s]
303.15 K | 877.3 ± 0.3 kg/m3 | 1256 ± 2
313.15 K | 867.2 ± 0.3 kg/m3 | 1212 ± 2
323.15 K | 856.6 ± 0.3 kg/m3 and 857.1 ± 0.3 kg/m3 | 1171 ± 2

C1CCOC1 [tetrahydrofuran] + CCNc1ccccc1
[2], x1 = 1
Conditions | mass density [kg/m3] | speed of sound [m/s]
303.15 K | 877.3 ± 0.3 | 1256 ± 2
313.15 K | 867.2 ± 0.3 | 1212 ± 2
323.15 K | 857.1 ± 0.3 | 1171 ± 2

C1CCOC1 [tetrahydrofuran] + CNc1ccccc1
[2], x1 = 1
Conditions | mass density [kg/m3] | speed of sound [m/s]
303.15 K | 877.3 ± 0.3 | 1256 ± 2
313.15 K | 867.2 ± 0.3 | 1212 ± 2
323.15 K | 856.6 ± 0.3 | 1171 ± 2

C1CCOC1 [tetrahydrofuran] + Nc1ccccc1
[2], x1 = 1
Conditions | mass density [kg/m3] | speed of sound [m/s]
303.15 K | 877.3 ± 0.3 | 1256 ± 2
313.15 K | 867.2 ± 0.3 | 1212 ± 2
323.15 K | 856.6 ± 0.3 | 1171 ± 2

Source: the NIST ThermoML archive (doi:10.1016/j.tca.2010.04.025)
